# Source: BindingDB's records for patent US20250313563 (The Broad Institute, 2025)
# pIC50: −log10 of the molar value. Where “and” joins values, the source holds several entries; their conditions need not be identical. Identical values can stand only once.
# What was measured:
# [1] = biological target: Glycogen synthase kinase-3 beta (Homo sapiens, UniProt P49841); test: TR-FRET Assay
# Procedure, shortened: (§1)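 Signal is measured as TR-FRET between a terbium anti-phospho-Ser641 antibody and streptavidin-d2, added after an EDTA quench. Compounds are preincubated 30 min in assay buffer.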
# [2] = biological target: Glycogen synthase kinase-3 alpha (Homo sapiens, UniProt P49840); test: TR-FRET Assay
# Glycogen synthase kinase-3 alpha, sequence (P49840 whole entry): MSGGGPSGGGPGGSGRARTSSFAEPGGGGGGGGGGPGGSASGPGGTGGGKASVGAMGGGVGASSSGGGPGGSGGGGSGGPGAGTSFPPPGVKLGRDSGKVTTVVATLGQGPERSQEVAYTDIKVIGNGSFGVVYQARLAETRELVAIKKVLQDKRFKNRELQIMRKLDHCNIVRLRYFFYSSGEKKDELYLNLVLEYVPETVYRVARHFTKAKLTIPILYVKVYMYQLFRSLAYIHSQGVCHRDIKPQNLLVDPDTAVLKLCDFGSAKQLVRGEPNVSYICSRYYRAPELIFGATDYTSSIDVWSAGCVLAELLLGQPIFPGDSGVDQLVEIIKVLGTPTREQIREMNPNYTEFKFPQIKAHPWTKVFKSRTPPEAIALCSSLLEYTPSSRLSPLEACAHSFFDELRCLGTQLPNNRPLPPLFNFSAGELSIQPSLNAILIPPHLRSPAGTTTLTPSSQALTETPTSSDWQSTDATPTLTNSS
# Procedure, shortened: as §1
# Glycogen synthase kinase-3 beta, sequence (P49841 whole entry): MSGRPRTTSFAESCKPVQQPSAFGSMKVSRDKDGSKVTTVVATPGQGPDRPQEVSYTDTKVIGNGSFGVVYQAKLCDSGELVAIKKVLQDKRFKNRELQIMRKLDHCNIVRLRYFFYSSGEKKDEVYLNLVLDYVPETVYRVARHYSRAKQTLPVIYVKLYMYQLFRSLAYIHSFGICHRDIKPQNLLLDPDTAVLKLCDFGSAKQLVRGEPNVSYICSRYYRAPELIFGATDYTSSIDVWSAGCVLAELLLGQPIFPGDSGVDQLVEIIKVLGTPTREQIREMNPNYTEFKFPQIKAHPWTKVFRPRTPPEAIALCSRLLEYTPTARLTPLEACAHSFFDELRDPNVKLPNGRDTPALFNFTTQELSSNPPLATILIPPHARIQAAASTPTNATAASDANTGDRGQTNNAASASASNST
Compound,pIC50 [1],pIC50 [2]
"Cn1ccc(S(=O)(=O)N2CC[C@]3(C2)C2=C(N=NC2)NC2=C3C(=O)CC(C)(C)C2)n1 [US20250313563, Compound 945714]",> 7.00,> 7.00
"CC[C@]1(c2cccc(S(=O)(=O)C3CC3)c2)C2=C(CC(C)(C)CC2=O)NC2N=NC(C(F)(F)F)=C21 (some centres not stated) [US20250313563, Compound 945715]",> 7.00,> 7.00
"CC1(C)CC(=O)C2=C(C1)NC1=C(CN=N1)[C@]21CCN(S(=O)(=O)c2ccccc2F)C1 [US20250313563, Compound 945718]",> 7.00 and 6.00 to 7.00,> 7.00
"CC1(C)CC(=O)C2=C(C1)NC1=C(CN=N1)[C@@]21CCN(S(=O)(=O)c2ccccc2F)C1 [US20250313563, Compound 945719]",> 7.00,> 7.00
"CCC1(c2cccc(-c3ccncc3F)c2)C2=C(CC(C)(C)NC2=O)NC2N=NC(C)=C21 (configuration not stated) [US20250313563, Compound 945722]",> 7.00,> 7.00
"CCC1(c2cccc(N3CCCC3)c2)C2=CN=NC2NC2=C1C(=O)NC(C)(C)C2 (configuration not stated) [US20250313563, Compound 945723]",5.30 to 6.00,6.00 to 7.00
"CC[C@@]1(c2cccc(-c3ccncc3O)c2)C2=CN=NC2NC2=C1C(=O)CC(C)(C)C2 (some centres not stated) [US20250313563, Compound 945724]",> 7.00 and 5.30 to 6.00,> 7.00 and 6.00 to 7.00
"CC[C@]1(c2cccc(-c3cnn(C)c3C)c2)C2=C(CC(C)(C)NC2=O)NC2N=NC(C)=C21 (some centres not stated) [US20250313563, Compound 945727]",< 5.30,< 5.30
"CC[C@]1(c2cccc(-c3ccncc3O)c2)C2=CN=NC2NC2=C1C(=O)CC(C)(C)C2 (some centres not stated) [US20250313563, Compound 945728]",< 5.30,5.30 to 6.00
"CC[C@]1(c2cccc(-c3cncn3C(C)C)c2)C2=CN=NC2NC2=C1C(=O)CC(C)(C)C2 (some centres not stated) [US20250313563, Compound 945729]",5.30 to 6.00,6.00 to 7.00
"CCc1cccc(N(C)c2cccc([C@]3(CC)C4=CN=NC4NC4=C3C(=O)CC(C)(C)C4)c2)n1 (some centres not stated) [US20250313563, Compound 945730]",6.00 to 7.00,> 7.00
"CC[C@@]1(c2cccc(-c3cnn(C)c3C)c2)C2=C(CC(C)(C)NC2=O)NC2N=NC(C)=C21 (some centres not stated) [US20250313563, Compound 945731]",> 7.00,> 7.00
"CC1(C)CC(=O)C2=C(C1)NC1=C(CN=N1)[C@@]21CCC[C@@H](C#N)C1 [US20250313563, Compound 945906]",6.00 to 7.00,6.00 to 7.00
"CC[C@]1(c2cccc(C(F)(F)F)c2)C2=CN=NC2NC2=C1C(=O)N[C@H](C(C)(C)C)C2 (some centres not stated) [US20250313563, Compound 945920]",6.00 to 7.00 and 5.30 to 6.00,> 7.00 and 6.00 to 7.00
"CC[C@@]1(c2cccc(C(F)(F)F)c2)C2=CN=NC2NC2=C1C(=O)N[C@H](C(C)(C)C)C2 (some centres not stated) [US20250313563, Compound 945922]",6.00 to 7.00,> 7.00
"CC[C@]1(c2cccc(Oc3cncnc3)c2)C2=CN=NC2NC2=C1C(=O)CC(C)(C)C2 (some centres not stated) [US20250313563, Compound 945933]",> 7.00,> 7.00
"CCC1(c2cccc(-c3ccnc(CCO)c3)c2)C2=CN=NC2NC2=C1C(=O)CC(C)(C)C2 (configuration not stated) [US20250313563, Compound 945992]",6.00 to 7.00,> 7.00
"CCC1(c2cccc(-c3cnn4c3CCCC4)c2)C2=C(CC(C)(C)NC2=O)NC2N=NC(C)=C21 (configuration not stated) [US20250313563, Compound 945993]",6.00 to 7.00,> 7.00
"CCC1(c2cccc(-c3ccnc(C)c3C)c2)C2=CN=NC2NC2=C1C(=O)NC(C)(C)C2 (configuration not stated) [US20250313563, Compound 945994]",6.00 to 7.00,> 7.00
"CC[C@@]1(c2cccc(-c3cc(C)ncc3OC)c2)C2=CN=NC2NC2=C1C(=O)CC(C)(C)C2 (some centres not stated) [US20250313563, Compound 945995]",> 7.00 and 5.30 to 6.00,> 7.00 and 6.00 to 7.00
"CC[C@]1(c2cccc(-c3cn(C)nc3C)c2)C2=C(CC(C)(C)NC2=O)NC2N=NC(C)=C21 (some centres not stated) [US20250313563, Compound 945996]",5.30 to 6.00,6.00 to 7.00
"CC[C@@]1(c2cccc(-c3ccnc(C)c3OC)c2)C2=CN=NC2NC2=C1C(=O)CC(C)(C)C2 (some centres not stated) [US20250313563, Compound 945997]",> 7.00 and 5.30 to 6.00,> 7.00 and 6.00 to 7.00
"CC[C@@]1(c2cccc(S(=O)(=O)C3CC3)c2)C2=CN=NC2NC2=C1C(=O)NC(C)(C)C2 (some centres not stated) [US20250313563, Compound 945999]",> 7.00,> 7.00

Compound,pIC50 [1],pIC50 [2]
"CC[C@]1(c2cccc(-c3cc(C)nn3C)c2)C2=CN=NC2NC2=C1C(=O)CC(C)(C)C2 (some centres not stated) [US20250313563, Compound 946000]",< 5.30,< 5.30
"CC[C@@]1(c2cccc(-c3cn(C)nc3C)c2)C2=C(CC(C)(C)NC2=O)NC2N=NC(C)=C21 (some centres not stated) [US20250313563, Compound 946001]",> 7.00 and 6.00 to 7.00,> 7.00
"CC[C@]1(c2cccc(-c3ccnc(C)c3OC)c2)C2=CN=NC2NC2=C1C(=O)CC(C)(C)C2 (some centres not stated) [US20250313563, Compound 946002]",< 5.30,< 5.30
"CC[C@]1(c2cccc(-c3cc[n+]([O-])c(C)c3)c2)C2=CN=NC2NC2=C1C(=O)CC(C)(C)C2 (some centres not stated) [US20250313563, Compound 946055]",5.30 to 6.00,6.00 to 7.00
"CC[C@]1(c2ccccc2)C2=CN=NC2NC2=C1C(=O)C(O)C(C)(C)C2 (some centres not stated) [US20250313563, Compound 946056]",< 5.30,6.00 to 7.00
"CC1(C)CC(=O)C2=C(C1)NC1=C(CN=N1)[C@@]21CO[C@H](c2ccccc2)C1 [US20250313563, Compound 946072]",6.00 to 7.00,> 7.00
"CC1(C)CC(=O)C2=C(C1)NC1N=NC=C1[C@@]21CO[C@@H](c2ccccc2)C1 (some centres not stated) [US20250313563, Compound 946073]",6.00 to 7.00,> 7.00
"CC1(C)CC(=O)C2=C(C1)NC1=C(CN=N1)[C@]21CCC[C@H](C#N)C1 [US20250313563, Compound 946078]",< 5.30,5.30 to 6.00
"CC1(C)CC(=O)C2=C(C1)NC1=C(CN=N1)[C@]21CCC[C@@H](C#N)C1 [US20250313563, Compound 946080]",5.30 to 6.00,5.30 to 6.00
"CCn1nccc1-c1cccc([C@]2(CC)C3=CN=NC3NC3=C2C(=O)CC(C)(C)C3)c1 (some centres not stated) [US20250313563, Compound 946089]",> 7.00 and 6.00 to 7.00,> 7.00
"CC[C@@]1(c2cccc(-c3ccnn3C(C)C)c2)C2=CN=NC2NC2=C1C(=O)CC(C)(C)C2 (some centres not stated) [US20250313563, Compound 946091]",> 7.00,> 7.00
"CCCn1nccc1-c1cccc([C@@]2(CC)C3=CN=NC3NC3=C2C(=O)CC(C)(C)C3)c1 (some centres not stated) [US20250313563, Compound 946094]",5.30 to 6.00,6.00 to 7.00
"CC[C@]1(c2cccc(-c3c(C)nnn3C)c2)C2=CN=NC2NC2=C1C(=O)CC(C)(C)C2 (some centres not stated) [US20250313563, Compound 946099]",> 7.00 and 6.00 to 7.00,> 7.00
"CC[C@@]1(c2cccc(-c3c(C)nnn3C)c2)C2=CN=NC2NC2=C1C(=O)CC(C)(C)C2 (some centres not stated) [US20250313563, Compound 946100]",5.30 to 6.00,6.00 to 7.00
"CC[C@]1(c2cccc(-c3ccnc(C)c3)c2)C2=CN=NC2NC2=C1C(=O)CC(C)(C)[C@H]2F (some centres not stated) [US20250313563, Compound 946103]",5.30 to 6.00,6.00 to 7.00
"CC[C@@]1(c2cccc(-c3ccnc(C)c3)c2)C2=CN=NC2NC2=C1C(=O)CC(C)(C)[C@H]2F (some centres not stated) [US20250313563, Compound 946104]",6.00 to 7.00,6.00 to 7.00
"Cc1ccc(S(=O)(=O)N2CCC3(CC2)C2=C(N=NC2)NC2=C3C(=O)CC(C)(C)C2)cc1Cl [US20250313563, Compound 947241]",> 7.00,> 7.00
"CC1(C)CC(=O)C2=C(C1)NC1=C(CN=N1)C21CCN(S(=O)(=O)c2cccc(OC(F)F)c2)CC1 [US20250313563, Compound 947242]",> 7.00 and 6.00 to 7.00,> 7.00
"CC1(C)CC(=O)C2=C(C1)NC1=C(CN=N1)C21CCN(S(=O)(=O)c2cccc(Cl)c2)CC1 [US20250313563, Compound 947243]",> 7.00 and 5.30 to 6.00,> 7.00 and 6.00 to 7.00
"CC1(C)CC(=O)C2=C(C1)NC1=C(CN=N1)C21CCN(S(=O)(=O)c2cccc(C(F)(F)F)c2)CC1 [US20250313563, Compound 947244]",> 7.00,> 7.00
"COc1ccc(C)c(S(=O)(=O)N2CCC3(CC2)C2=C(N=NC2)NC2=C3C(=O)CC(C)(C)C2)c1 [US20250313563, Compound 947245]",6.00 to 7.00,> 7.00
"CC1(C)CC(=O)C2=C(C1)NC1=C(CN=N1)C21CCN(S(=O)(=O)c2ccc(OC(F)F)cc2)CC1 [US20250313563, Compound 947246]",> 7.00 and 6.00 to 7.00,> 7.00
"CN(C)C(=O)c1cccc(S(=O)(=O)N2CCC3(CC2)C2=C(N=NC2)NC2=C3C(=O)CC(C)(C)C2)c1 [US20250313563, Compound 947247]",> 7.00,> 7.00
